Assay results: patent publication US20260240975A1, “VALIDATED HPV16-DERIVED S[…]” (Deutsches Krebsforschungszentrum Stiftung des öffentlichen …, priority 2023, published 2026)

What was measured:
[1] = system: peptide-specific T cell cultures; assay: T cell phenotyping and intracellular cytokine staining (flow cytometry); type: cell-based, human; design: key: +: cytokine: Immunogenicity of the peptide shown by intracellular cytokine staining (IFN-gamma, TNF-alpha); details: IFN-gamma, TNF-alpha
[2] = system: short-term antigen-specific T cell lines generated from PBMCs; assay: Interferon-γ ELISpot assay on short-term T cell lines; type: cell-based, human; design: key: +: ELISPOT: Immungenicity of the peptide shown by IFN-gamma ELISPOT analysis; * Highlights data from published resources; +*: * Highlights data from published resources

Substance: 3 (TIHDIILQCVY; Human papillomavirus 16) [compound 3]
- cytokine ([1]; HLA restriction A01): +
- ELISpot ([2]; HLA restriction A01): +

Substance: 4 (YGVCDKCLKFY; Human papillomavirus 16) [compound 4]
- cytokine ([1]; HLA restriction A01): +
- ELISpot ([2]; HLA restriction A01): +

Substance: 5 (EYRYYCYSLY; Human papillomavirus 16) [compound 5]
- cytokine ([1]; HLA restriction A01): +
- ELISpot ([2]; HLA restriction A01): +

Substance: 6 (DLQPETTDLY; Human papillomavirus 16) [compound 6]
- cytokine ([1]; HLA restriction A01): +
- ELISpot ([2]; HLA restriction A01): +

Substance: 7 (TTDLYCYEQ; Human papillomavirus 16) [compound 7]
- cytokine ([1]; HLA restriction A01): +
- ELISpot ([2]; HLA restriction A01): +

Substance: 8 (SKISEYRHYCY; Human papillomavirus 16) [compound 8]
- ELISpot ([2]; HLA restriction A01): +

Substance: 9 (SEYRHYCYSLY; Human papillomavirus 16) [compound 9]
- ELISpot ([2]; HLA restriction A01): +
- ELISpot ([2]; HLA restriction B15): 1

Substance: 10 (ETTDLYCY; Human papillomavirus 16) [compound 10]
- ELISpot ([2]; HLA restriction A01): +

Substance: 24 (LLMGTLGIVC; Human papillomavirus 16) [compound 24]
- cytokine ([1]; HLA restriction A02): +
- ELISpot ([2]; HLA restriction A02): +

Substance: 28 (KLPQLCTELQT; Human papillomavirus 16) [compound 28]
- ELISpot ([2]; HLA restriction A02): +

Substance: 29 (ELQTTIHDI; Human papillomavirus 16) [compound 29]
- ELISpot ([2]; HLA restriction A02): +

Substance: 32 (TLHEYMLDLQP; Human papillomavirus 16) [compound 32]
- ELISpot ([2]; HLA restriction A02): +

Substance: 35 (IILECVYCK; Human papillomavirus 16) [compound 35]
- ELISpot ([2]; HLA restriction A11): +

Substance: 36 (HLDKKQRFH; Human papillomavirus 16) [compound 36]
- ELISpot ([2]; HLA restriction A03): +

Substance: 39 (FAFRDLCIVYR; Human papillomavirus 16) [compound 39]
- cytokine ([1]; HLA restriction A11): +
- ELISpot ([2]; HLA restriction A11): +

Substance: 40 (AFRDLCIVYR; Human papillomavirus 16) [compound 40]
- cytokine ([1]; HLA restriction A11): +
- ELISpot ([2]; HLA restriction A11): +

Substance: 41 (IVYRDGNPY; Human papillomavirus 16) [compound 41]
- cytokine ([1]; HLA restriction A11): +
- ELISpot ([2]; HLA restriction A11): +

Substance: 42 (NPYAVCDKCLK; Human papillomavirus 16) [compound 42]
- cytokine ([1]; HLA restriction A11): +
- ELISpot ([2]; HLA restriction A11): +

Substance: 44 (AVCDKCLKFYS; Human papillomavirus 16) [compound 44]
- cytokine ([1]; HLA restriction A11): +
- ELISpot ([2]; HLA restriction A11): +

Substance: 45 (VCDKCLKFYSK; Human papillomavirus 16) [compound 45]
- cytokine ([1]; HLA restriction A11): +
- ELISpot ([2]; HLA restriction A11): +

Substance: 47 (MFQDPQERPRK; Human papillomavirus 16) [compound 47]
- ELISpot ([2]; HLA restriction A03): +

Substance: 48 (YAVCDKCLKFY; Human papillomavirus 16) [compound 48]
- ELISpot ([2]; HLA restriction A11): +

Substance: 49 (AVCDKCLK; Human papillomavirus 16) [compound 49]
- ELISpot ([2]; HLA restriction A03): +

Substance: 50 (KCLKFYSKI; Human papillomavirus 16) [compound 50]
- ELISpot ([2]; HLA restriction A03): +

Substance: 51 (KFYSKISEY; Human papillomavirus 16) [compound 51]
- ELISpot ([2]; HLA restriction A03): +
- ELISpot ([2]; HLA restriction A24): +

Substance: 52 (KFYSKISEYR; Human papillomavirus 16) [compound 52]
- ELISpot ([2]; HLA restriction A03): +

Substance: 54 (TTLEQQYNK; Human papillomavirus 16) [compound 54]
- ELISpot ([2]; HLA restriction A03): +

Substance: 56 (LIRCINCQK; Human papillomavirus 16) [compound 56]
- ELISpot ([2]; HLA restriction A03): +

Substance: 57 (RCINCQKPLCP; Human papillomavirus 16) [compound 57]
- ELISpot ([2]; HLA restriction A03): +

Substance: 58 (KQRFHNIRGR; Human papillomavirus 16) [compound 58]
- ELISpot ([2]; HLA restriction A03): +

Substance: 59 (LGIVCPICSQK; Human papillomavirus 16) [compound 59]
- ELISpot ([2]; HLA restriction A11): +

Substance: 63 (PYAVCDKCLKF; Human papillomavirus 16) [compound 63]
- ELISpot ([2]; HLA restriction A24): +

Substance: 72 (YSLYGTTL; Human papillomavirus 16) [compound 72]
- ELISpot ([2]; HLA restriction A24): +

Substance: 73 (HLDKKQRFHNI; Human papillomavirus 16) [compound 73]
- ELISpot ([2]; HLA restriction A24): +

Substance: 74 (DKKQRFHN; Human papillomavirus 16) [compound 74]
- ELISpot ([2]; HLA restriction A24): +

Substance: 75 (AHYNIVTF; Human papillomavirus 16) [compound 75]
- ELISpot ([2]; HLA restriction A24): +

Substance: 82 (RPRKLPQLCT; Human papillomavirus 16) [compound 82]
- ELISpot ([2]; HLA restriction B07): +

Substance: 84 (RCMSCCRSSR; Human papillomavirus 16) [compound 84]
- ELISpot ([2]; HLA restriction B07): +

Substance: 89 (QQLLRREVY; Human papillomavirus 16) [compound 89]
- ELISpot ([2]; HLA restriction B15): +

Substance: 93 (FAFRDLCIVY; Human papillomavirus 16) [compound 93]
- ELISpot ([2]; HLA restriction B15): +

Substance: 94 (LCIVYRDGNPY; Human papillomavirus 16) [compound 94]
- ELISpot ([2]; HLA restriction B15): +

Substance: 96 (LLRREVYDFAF; Human papillomavirus 16) [compound 96]
- ELISpot ([2]; HLA restriction B15): +

Substance: 97 (LRREVYDFAF; Human papillomavirus 16) [compound 97]
- ELISpot ([2]; HLA restriction B15): +

Substance: 98 (IVYRDGNPYAV; Human papillomavirus 16) [compound 98]
- ELISpot ([2]; HLA restriction B15): +

Substance: 99 (AVCDKCLKF; Human papillomavirus 16) [compound 99]
- ELISpot ([2]; HLA restriction B15): +

Substance: 100 (CLKFYSKISEY; Human papillomavirus 16) [compound 100]
- ELISpot ([2]; HLA restriction B15): +

Substance: 101 (FYSKISEY; Human papillomavirus 16) [compound 101]
- ELISpot ([2]; HLA restriction B15): +

Substance: 104 (SEYRHYCY; Human papillomavirus 16) [compound 104]
- ELISpot ([2]; HLA restriction B15): +

Substance: 105 (QQYNKPLCDL; Human papillomavirus 16) [compound 105]
- ELISpot ([2]; HLA restriction B15): +

Substance: 106 (CQKPLCPEE; Human papillomavirus 16) [compound 106]
- ELISpot ([2]; HLA restriction B15): +

Substance: 107 (KQRHLDKKQRF; Human papillomavirus 16) [compound 107]
- ELISpot ([2]; HLA restriction B15): +

Substance: 109 (TLHEYMLDL; Human papillomavirus 16) [compound 109]
- ELISpot ([2]; HLA restriction B15): +

Substance: 110 (GQAEPDRAH; Human papillomavirus 16) [compound 110]
- ELISpot ([2]; HLA restriction B15): +

Substance: 112 (TTDLYCYEQL; Human papillomavirus 16) [compound 112]
- ELISpot ([2]; HLA restriction A01): +

Substance: 113 (SEYRHYCY; Human papillomavirus 16) [compound 113]
- ELISpot ([2]; HLA restriction A01): +

Substance: 114 (IHEIILECVY; Human papillomavirus 16) [compound 114]
- ELISpot ([2]; HLA restriction A01): +

Substance: 116 (GTTLEQQYNK; Human papillomavirus 16) [compound 116]
- ELISpot ([2]; HLA restriction A03): +

Substance: 119 (HYNIVTFC; Human papillomavirus 16) [compound 119]
- ELISpot ([2]; HLA restriction A24): +

Substance: 123 (CPDEKQRHL; Human papillomavirus 16) [compound 123]
- ELISpot ([2]; HLA restriction B07): +

Substance: 124 (LPQLCTELQT; Human papillomavirus 16) [compound 124]
- ELISpot ([2]; HLA restriction B07): +

Substance: 126 (KISEYRHY; Human papillomavirus 16) [compound 126]
- ELISpot ([2]; HLA restriction B15): +

Substance: 127 (RGRWTGRCM; Human papillomavirus 16) [compound 127]
- ELISpot ([2]; HLA restriction B15): +

Substance: 128 (AGQAEPDRAHY; Human papillomavirus 16) [compound 128]
- ELISpot ([2]; HLA restriction B15): +

Substance: 129 (FYSKISEY; Human papillomavirus 16) [compound 129]
- ELISpot ([2]; HLA restriction B15): +
